As usually defined, the bioavailability is dose-corrected exposure relative to a reference, in per cent. What is called half-life is how long it takes for the measured level to halve. One may read the clearance as the volume of plasma or blood freed of the substance per unit of time. The term Papp denotes a coefficient for how fast a substance crosses the barrier. As usually defined, the CLint scaled is a measure of how fast metabolising enzymes remove a compound, apart from limits set by blood flow.

The source of these data is ChEMBL document CHEMBL1140623, “CC chemokine receptor-3 (CCR3) antagonists: improving the selectivity of DPC168 by reducing central ring lipophilicity” (Bioorg Med Chem Lett, 2007).

The nature of data set [1]: in vivo. The note with it: cynomolgus monkey.
Data set [2] in a line: in vivo. As to conditions: chimpanzee.
Data set [3] can be described thus: in vivo. The note with it: cynomolgus monkey. This is another data set of the same source.
A short description of data set [4]: in vivo. The note with it: cynomolgus monkey. This is another data set of the same source.
Data set [5] in a line: in vitro. As to conditions: human, Caco-2.
Data set [6] is described as follows: in vivo. The note with it: BALB/c, mouse.
Data set [7] can be described thus: in vivo. The note with it: chimpanzee. The source holds these as a separate data set.
The nature of data set [8]: in vivo. The note with it: chimpanzee. The source holds these as a separate data set.
A short description of data set [9]: in vivo. The note with it: BALB/c, mouse. This is another data set of the same source.
The nature of data set [10]: in vitro. The note with it: human, liver microsomes. On the technique in general: Microsomes from liver hold many membrane-bound enzymes, among them those of drug oxidation.
Data set [11] in a line: in vivo. As to conditions: BALB/c, mouse. The source holds these as a separate data set.

Structures are written as SMILES.

On to `CC(=O)c1sc(NC(=O)N[C@@H]2CN(C(C)=O)CC[C@H]2CN2CCC[C@@H](Cc3ccc(F)cc3)C2)nc1C`, for which the bioavailability was 18% in “in vivo [1]”, 7% in the data set “in vivo [8]” and 25% in the data set “in vivo [11]”. Further, the figures for the half-life in the data set “in vivo [2]”, in “in vivo [4]” and in the data set “in vivo [6]” were 4.5 h, 5.5 h and 1.2 h, respectively. Moreover, the results for the clearance in the data set “in vivo [3]”, in “in vivo [7]” and in the data set “in vivo [9]” were 14.5 mL/min/kg, 21.7 mL/min/kg and 41.7 mL/min/kg, respectively. In addition, the Papp in “in vitro [5]” was 2.8 ×10⁻⁶ cm/s. Besides, the CLint scaled in “in vitro [10]” is 16 mL/min/kg.
